Measured values as given in ChEMBL document CHEMBL5724914, “Linking interpersonal differences in gut microbiota composition and drug biotransformation activity” (2024).

Tests used:
[1] = human gut metagenome, 24 h, 2 µM
[2] = The drug is tested on Z-020 corresponding to rabbit gut metagenome with ENA study accession number: PRJEB37062 and ENA sample accession number: ERS12561819 for biotransformation under anaerobic condition. The drug concentrations were measured over 9 timepoints collected between 0 and 24 hours of incubation by liquid-chromatography-coupled mass spectrometry (LC–MS); details: 2 µM
[3] = human gut metagenome, 24 h, 2 µM; remark: listed apart in the source
[4] = The drug is tested on WLS-098 corresponding to human gut metagenome with ENA study accession number: PRJEB37062 and ENA sample accession number: ERS12561754 for biotransformation under anaerobic condition. The drug concentrations were measured over 9 timepoints collected between 0 and 24 hours of incubation by liquid-chromatography-coupled mass spectrometry (LC–MS); details: 2 µM
[5] = The drug is tested on WLS-007 corresponding to human gut metagenome with ENA study accession number: PRJEB37062 and ENA sample accession number: ERS12561742 for biotransformation under anaerobic condition. The drug concentrations were measured over 9 timepoints collected between 0 and 24 hours of incubation by liquid-chromatography-coupled mass spectrometry (LC–MS); details: 2 µM
[6] = The drug is tested on Z-001 corresponding to mouse gut metagenome with ENA study accession number: PRJEB37062 and ENA sample accession number: ERS12561801 for biotransformation under anaerobic condition. The drug concentrations were measured over 9 timepoints collected between 0 and 24 hours of incubation by liquid-chromatography-coupled mass spectrometry (LC–MS); details: 2 µM
[7] = human gut metagenome, 24 h, 2 µM; remark: listed apart in the source
[8] = The drug is tested on Z-007 corresponding to rat gut metagenome with ENA study accession number: PRJEB37062 and ENA sample accession number: ERS12561807 for biotransformation under anaerobic condition. The drug concentrations were measured over 9 timepoints collected between 0 and 24 hours of incubation by liquid-chromatography-coupled mass spectrometry (LC–MS); details: 2 µM
[9] = The drug is tested on Z-005 corresponding to metagenome with ENA study accession number: PRJEB37062 and ENA sample accession number: ERS12561805 for biotransformation under anaerobic condition. The drug concentrations were measured over 9 timepoints collected between 0 and 24 hours of incubation by liquid-chromatography-coupled mass spectrometry (LC–MS); details: 2 µM
[10] = The drug is tested on Z-002 corresponding to rabbit gut metagenome with ENA study accession number: PRJEB37062 and ENA sample accession number: ERS12561802 for biotransformation under anaerobic condition. The drug concentrations were measured over 9 timepoints collected between 0 and 24 hours of incubation by liquid-chromatography-coupled mass spectrometry (LC–MS); details: 2 µM
[11] = human gut metagenome, 24 h, 2 µM; remark: listed apart in the source
[12] = human gut metagenome, 24 h, 2 µM; remark: listed apart in the source
[13] = The drug is tested on Z-019 corresponding to rat gut metagenome with ENA study accession number: PRJEB37062 and ENA sample accession number: ERS12561818 for biotransformation under anaerobic condition. The drug concentrations were measured over 9 timepoints collected between 0 and 24 hours of incubation by liquid-chromatography-coupled mass spectrometry (LC–MS); details: 2 µM
[14] = The drug is tested on WLS-069 corresponding to human gut metagenome with ENA study accession number: PRJEB37062 and ENA sample accession number: ERS12561748 for biotransformation under anaerobic condition. The drug concentrations were measured over 9 timepoints collected between 0 and 24 hours of incubation by liquid-chromatography-coupled mass spectrometry (LC–MS); details: 2 µM
[15] = human gut metagenome, 24 h, 2 µM; remark: listed apart in the source
[16] = The drug is tested on Z-030 corresponding to mouse gut metagenome with ENA study accession number: PRJEB37062 and ENA sample accession number: ERS12561829 for biotransformation under anaerobic condition. The drug concentrations were measured over 9 timepoints collected between 0 and 24 hours of incubation by liquid-chromatography-coupled mass spectrometry (LC–MS); details: 2 µM
[17] = The drug is tested on Z-027 corresponding to metagenome with ENA study accession number: PRJEB37062 and ENA sample accession number: ERS12561826 for biotransformation under anaerobic condition. The drug concentrations were measured over 9 timepoints collected between 0 and 24 hours of incubation by liquid-chromatography-coupled mass spectrometry (LC–MS); details: 2 µM
[18] = human gut metagenome, 24 h, 2 µM; remark: listed apart in the source
[19] = human gut metagenome, 24 h, 2 µM; remark: listed apart in the source
[20] = The drug is tested on WLS-073 corresponding to human gut metagenome with ENA study accession number: PRJEB37062 and ENA sample accession number: ERS12561749 for biotransformation under anaerobic condition. The drug concentrations were measured over 9 timepoints collected between 0 and 24 hours of incubation by liquid-chromatography-coupled mass spectrometry (LC–MS); details: 2 µM
Note: call rule not given here.

Row | Compound | Bacterial Biotransformation [1] | Bacterial Biotransformation [2] | Bacterial Biotransformation [3] | Bacterial Biotransformation [4] | Bacterial Biotransformation [5] | Bacterial Biotransformation [6] | Bacterial Biotransformation [7] | Bacterial Biotransformation [8] | Bacterial Biotransformation [9] | Bacterial Biotransformation [10] | Bacterial Biotransformation [11] | Bacterial Biotransformation [12] | Bacterial Biotransformation [13] | Bacterial Biotransformation [14] | Bacterial Biotransformation [15] | Bacterial Biotransformation [16] | Bacterial Biotransformation [17] | Bacterial Biotransformation [18] | Bacterial Biotransformation [19] | Bacterial Biotransformation [20]
1 | O=P(O)(O)O.c1ccc(CN(CC2=NCCN2)c2ccccc2)cc1 [ANTAZOLINE PHOSPHATE] | Compound metabolized | Compound NOT metabolized | Compound NOT metabolized | Compound metabolized | Compound metabolized | Compound NOT metabolized | Compound NOT metabolized | Compound NOT metabolized | Compound NOT metabolized | Compound metabolized | Compound metabolized | Compound metabolized | Compound NOT metabolized | Compound NOT metabolized | Compound NOT metabolized | Compound NOT metabolized | Compound NOT metabolized | Compound metabolized | Compound NOT metabolized | Compound NOT metabolized
2 | CN1CCC(=C2c3ccccc3CCc3cccnc32)CC1.O=C(O)/C=C\C(=O)O.O=C(O)/C=C\C(=O)O [AZATADINE MALEATE] | Compound NOT metabolized | Compound NOT metabolized | Compound NOT metabolized | Compound NOT metabolized | Compound NOT metabolized | Compound NOT metabolized | Compound NOT metabolized | Compound NOT metabolized | Compound NOT metabolized | Compound NOT metabolized | Compound metabolized | Compound NOT metabolized | Compound NOT metabolized | Compound NOT metabolized | Compound NOT metabolized | Compound NOT metabolized | Compound NOT metabolized | Compound NOT metabolized | Compound NOT metabolized | Compound NOT metabolized
3 | CC(=O)OCC(=O)[C@@]1(O)[C@@H](C)C[C@H]2[C@@H]3CCC4=CC(=O)C=C[C@]4(C)[C@@]3(F)[C@@H](O)C[C@@]21C [BETAMETHASONE ACETATE] | Compound metabolized | Compound metabolized | Compound metabolized | Compound metabolized | Compound metabolized | Compound metabolized | Compound metabolized | Compound NOT metabolized | Compound metabolized | Compound metabolized | Compound metabolized | Compound metabolized | Compound NOT metabolized | Compound metabolized | Compound NOT metabolized | Compound NOT metabolized | Compound NOT metabolized | Compound metabolized | Compound metabolized | Compound NOT metabolized
4 | CC(C)NCC(O)COc1ccc(CCOCC2CC2)cc1 (stereo not given) [BETAXOLOL] | Compound metabolized | Compound NOT metabolized | Compound NOT metabolized | Compound metabolized | Compound NOT metabolized | Compound NOT metabolized | Compound NOT metabolized | Compound NOT metabolized | Compound NOT metabolized | Compound metabolized | Compound metabolized | Compound NOT metabolized | Compound NOT metabolized | Compound NOT metabolized | Compound NOT metabolized | Compound NOT metabolized | Compound NOT metabolized | Compound NOT metabolized | Compound NOT metabolized | Compound NOT metabolized
5 | CC(C)(Oc1ccc(CCNC(=O)c2ccc(Cl)cc2)cc1)C(=O)O [BEZAFIBRATE] | Compound metabolized | Compound NOT metabolized | Compound NOT metabolized | Compound metabolized | Compound metabolized | Compound NOT metabolized | Compound metabolized | Compound NOT metabolized | Compound NOT metabolized | Compound metabolized | Compound metabolized | Compound metabolized | Compound NOT metabolized | Compound metabolized | Compound NOT metabolized | Compound NOT metabolized | Compound NOT metabolized | Compound metabolized | Compound metabolized | Compound metabolized
